Measurements: patent US7183415B2, “Quinoline compound” (Takeda Pharmaceutical Company Limited, priority 2001, dated 2007)

Compared with Cc1cc2cc(CN3CCCCCC3)cnc2cc1NC(=O)c1ccc(-c2ccc(F)cc2)cc1F [Example 244, N-[3-(1-azepanylmethyl)-6-methyl-7-quinolinyl]-3,4′-difluoro[1,1′-biphenyl]-4-carboxamide], Cc1cc2cc(CN3CCCC3)cnc2cc1NC(=O)c1ccc(-c2ccc(F)cc2)cc1F [Example 228, 3,4′-difluoro-N-[6-methyl-3-(1-pyrrolidinylmethyl)-7-quinolinyl][1,1′-biphenyl]-4-carboxamide] is higher in melting point: 170 °C for the first, 174 to 177 °C for the second.

Compared with CNC(=O)C1CCN(Cc2cnc3cc(NC(=O)c4ccc(-c5ccc(F)cc5)cc4)c(C)cc3c2)CC1 [Example 275, 1-[(7-{[(4′-fluoro-1,1′-biphenyl-4-yl)carbonyl]amino}-6-methyl-3-quinolinyl)methyl]-N-methylpiperidine-4-carboxamide], Cc1cc2cc(CN3CCC(CCCC(N)=O)CC3)cnc2cc1NC(=O)c1ccc(-c2ccc(F)cc2)cc1 [Example 264, N-(3-{[4-(4-amino-4-oxobutyl)-1-piperidinyl]methyl}-6-methyl-7-quinolinyl)-4′-fluoro[1,1′-biphenyl]-4-carboxamide] is lower in melting point: 257 °C for the first, 228 °C for the second.

First: COc1ccc(-c2ccc(C(=O)Nc3ccc4cc(CN5CCCC5)cnc4c3)cc2)cc1 [Example 3, 4′-methoxy-N-[3-(1-pyrrolidinylmethyl)-7-quinolinyl][1,1′-biphenyl]-4-carboxamide]
Second: COc1ccc(-c2ccc(C(=O)Nc3ccc4cc(CN5CCCC5)cnc4c3)c(F)c2)cc1 [Example 87, 3-fluoro-4′-methoxy-N-[3-(1-pyrrolidinylmethyl)-7-quinolinyl][1,1′-biphenyl]-4-carboxamide]
The melting point of the first is higher: 202 to 204 °C for the first, 174 °C for the second.

Compared with Cc1cc2cc(CN3CCCC3)cnc2cc1NC(=O)c1ccc(-c2ccc(Cl)s2)cc1 [Example 220, 4-(5-chlorothien-2-yl)-N-[6-methyl-3-(1-pyrrolidinylmethyl)-7-quinolinyl]benzamide], Cc1c(NC(=O)c2ccc(-c3ccc(Cl)s3)cc2)ccc2cc(CN3CCCCC3)cnc12 [Example 167, 4-(5-chloro-2-thienyl)-N-[8-methyl-3-(1-piperidinylmethyl)-7-quinolinyl]benzamide] is lower in melting point: 216 °C for the first, 212 to 213 °C for the second.

First: Cc1c(NC(=O)c2ccc(-c3ccccc3)cc2F)ccc2cc(CN3CCCC3)cnc12 [Example 149, 3-fluoro-N-[8-methyl-3-(1-pyrrolidinylmethyl)-7-quinolinyl][1,1′-biphenyl]-4-carboxamide]
Second: CSc1ccc(-c2ccc(C(=O)Nc3ccc4cc(CN5CCCC5)cnc4c3C)c(F)c2)cc1 [Example 144, 3-fluoro-N-[8-methyl-3-(1-pyrrolidinylmethyl)-7-quinolinyl]-4′-(methylsulfanyl)[1,1′-biphenyl]-4-carboxamide]
The melting point of the first is lower: 166 to 168 °C for the first, 189 to 190 °C for the second.

Compared with CCc1ccc(-c2ccc(C(=O)Nc3cc4ncc(CN5CCCC5)cc4cc3C)cc2)cc1 [Example 217, 4′-ethyl-N-[6-methyl-3-(1-pyrrolidinylmethyl)-7-quinolinyl][1,1′-biphenyl]-4-carboxamide], Cc1cc2cc(CN3CCCC3)cnc2cc1NC(=O)c1ccc(-c2ccccc2F)cc1 [Example 213, 2′-fluoro-N-[6-methyl-3-(1-pyrrolidinylmethyl)-7-quinolinyl][1,1′-biphenyl]-4-carboxamide] is lower in melting point: 188 °C for the first, 148 to 149 °C for the second.

Compared with O=C(Nc1ccc2cc(CN3CCCC3)cnc2c1)c1ccc(-c2ccccc2)nc1 [Example 7, 6-phenyl-N-[3-(1-pyrrolidinylmethyl)-7-quinolinyl]nicotinamide], Cc1c(NC(=O)c2ccc(-c3ccc(Cl)cc3)nc2)ccc2cc(CN3CCCC3)cnc12 [Example 95, 6-(4-chlorophenyl)-N-[8-methyl-3-(1-pyrrolidinylmethyl)-7-quinolinyl]nicotinamide] is higher in melting point: 208 to 210 °C for the first, 234 to 236 °C for the second.

Compared with NC(=O)C1CCN(Cc2cnc3cc(NC(=O)c4ccc(-c5ccc(Cl)cc5)cc4)ccc3c2)CC1 [Example 90, 1-[(7-{[(4′-chloro-1,1′-biphenyl-4-yl)carbonyl]amino}-3-quinolinyl)methyl]piperidine-4-carboxamide], O=C(Nc1ccc2cc(CN3CCC(CCO)CC3)cnc2c1)c1ccc(-c2ccc(Cl)cc2)cc1 [Example 89, 4′-chloro-N-(3-{[4-(2-hydroxyethyl)-1-piperidinyl]methyl}-7-quinolinyl)-[1,1′-biphenyl]-4-carboxamide] is lower in melting point: 260 °C for the first, 204 °C for the second.

Compared with Cc1cc2cc(CN3CCCCCC3)cnc2cc1NC(=O)c1ccc(-c2ccccc2)cc1F [Example 246, N-[3-(1-azepanylmethyl)-6-methyl-7-quinolinyl]-3-fluoro[1,1′-biphenyl]-4-carboxamide], COc1ccc(-c2ccc(C(=O)Nc3cc4ncc(CN5CCCCCC5)cc4cc3C)c(F)c2)cc1 [Example 245, N-[3-(1-azepanylmethyl)-6-methyl-7-quinolinyl]-3-fluoro-4′-methoxy[1,1′-biphenyl]-4-carboxamide] is higher in melting point: 151 °C for the first, 168 °C for the second.

Compared with Cc1ccc(-c2ccc(C(=O)Nc3ccc4cc(CN5CCCC5)cnc4c3C)cc2F)cc1 [Example 155, 2-fluoro-4′-methyl-N-[8-methyl-3-(1-pyrrolidinylmethyl)-7-quinolinyl][1,1′-biphenyl]-4-carboxamide], Cc1c(NC(=O)c2ccc(-c3ccc(Cl)cc3)cc2)ccc2cc(CN3CCCC3)cnc12 [Example 21, 4′-chloro-N-[8-methyl-3-(1-pyrrolidinylmethyl)-7-quinolinyl][1,1′-biphenyl]-4-carboxamide] is higher in melting point: 193 to 194 °C for the first, 227 to 229 °C for the second.

First: O=C(Nc1cc2ncc(CN3CCCC3)cc2cc1N1CCCC1)c1ccc(-c2ccc(F)cc2)cc1 [Example 64, 4′-fluoro-N-[6-(1-pyrrolidinyl)-3-(1-pyrrolidinylmethyl)-7-quinolinyl][1,1′-biphenyl]-4-carboxamide]
Second: Cc1cc2cc(CN3CCC(CCCC(=O)N4CCCCC4)CC3)cnc2cc1NC(=O)c1ccc(-c2ccc(F)cc2)cc1 [Example 259, 4′-fluoro-N-[6-methyl-3-({4-[4-oxo-4-(1-piperidinyl)butyl]-1-piperidinyl}methyl)-7-quinolinyl][1,1′-biphenyl]-4-carboxamide]
The melting point of the first is higher: 182 to 184 °C for the first, 179 °C for the second.

In the case of Cc1c(NC(=O)c2ccc(-c3ccc(F)cc3)cc2)ccc2cc(CN3CCC(CCCC(=O)N4CCCCC4)CC3)cnc12 [Example 211, 4′-fluoro-N-[8-methyl-3-({4-[4-oxo-4-(1-piperidinyl)butyl]-1-piperidinyl}methyl)-7-quinolinyl][1,1′-biphenyl]-4-carboxamide], the melting point is reported as 154 to 156 °C.

In the case of COc1ccc(-c2ccc(C(=O)Nc3ccc4cc(CN5CCCCCC5)cnc4c3)cc2)cc1 [Example 30, N-[3-(1-azepanylmethyl)-7-quinolinyl]-4′-methoxy[1,1′-biphenyl]-4-carboxamide], the melting point is reported as 212 °C (dec.).
With Cc1ccc(-c2ccc(C(=O)Nc3ccc4cc(CN5CCC(C(N)=O)CC5)cnc4c3C)cc2)cc1 [Example 26, 1-[(8-methyl-7-{[(4′-methyl-1,1′-biphenyl-4-yl)carbonyl]amino}-3-quinolinyl)methyl]-4-piperidine carboxamide] the melting point was 287 °C (dec.).
